# Experimental data reported in patent US20120022142A1, “RNA Interference Mediated Inhibition of Signal Transducer and Activator of Transcription 1 (STAT1) Gene Expression Using Short Interfering Nucleic Acid (siNA)” (Merck Sharp & Dohme Corp., priority 2009, published 2012).
# [invAb] = inverted abasic unit; m = 2'-O-methyl; r = 2'-OH (RNA); f = 2'-fluoro
# Key:
# STAT1 mRNA = test: Stat1 mRNA knockdown and EC50 in human bronchial epithelial cells (NHBE); assay type: cell-based; conditions: 48 hours post transfection, mean of 3 donors; for EC50: Stat1 mRNA knockdown; for Maximum mRNA Knockdown: Stat1 mRNA
# Experimental: Human Bronchial Epithelial cells (NHBE cells) obtained from Lonza (Cat. No. CC-2540) were grown at 37 degrees in the presence of 5% CO2 and cultured in BEBM basal medium (Lonza, Cat. No. CC-3171) on Biocoat Collagen1 coated flasks (Becton Dickinson).
# Cells were plated in collagen 1 coated plates and cultured in appropriate culture media. The cells were cultured for 24 hours after plating at 37 deg in the presence of 5% CO2. siNAs were diluted in OptiMEM 1 to 1 uM and the transfection agent to 25 ug/ml. For formulation of the siNAs equal volumes of the diluted siNA and delivery lipid were combined and incubated for 20 minutes at room temperature. Cells were meanwhile trypsinised and resuspended in antibiotic free BEBM media at 150,000 cells/ml. 20 ul of the formulated siNA and 80 ul of BEBM media was added per well of a 96 well plate (6 replicates/data point/siNA concentration) so as to give a nine point dose range of the siNAs (100 nM, 30 nM, 10 nM, 3 nM, 1 nM, 0.3 nM, 0.1 nM, 0.03 nM, 0.01 nM). The time of incubation with the transfection agent-siNA complexes were 48 hours with one change of media at 24 hours.
# Total RNA was isolated from the cells in the 96-well plate format using the Automated SV96 Total RNA Isolation System (Promega) according to the manufacturer's instructions. The Biomek 2000 Laboratory Automation Workstation (Beckman Coulter) was used to apply the transfected cell lysates to a silica membrane. RNase-Free DNase I was then applied directly to the silica membrane to digest contaminating genomic DNA. The bound total RNA was further purified from contaminating salts, proteins and cellular impurities by simple washing steps. Finally, total RNA was eluted from the membrane by the addition of Nuclease-Free Water.
# A series of probes and primers were used for the detection of mRNA transcripts of STAT1, OAS1, and GAPDH (as control/normalisation) in the human cell lines. The assays were performed on an ABI 7900HT instrument according to the manufacturer's instructions.
# With TaqMan data, critical threshold values (Ct) were converted to copy numbers corresponding to the particular gene analysed in each well of the 384 well plate. Six identical wells were prepared in each plate for a given treatment. […] Determination of the percentage coefficient of variation (CV) (% C.V.=[standard deviation/average]*100) allowed the omitting of wells whose value was an outlier (so that % C.V.<25). Relative abundance (aka relative expression) of a gene was determined by dividing the mean copy number of that gene with its GAPDH counterpart in that particular sample.
# EC50 values were calculated from the data using sigma plot. All calculations of the efficacy and potency of the siNAs were done relative to the non-targeting control siNA.
# STAT1 mouse mRNA = test: Initial screen of siNAs: STAT1 mRNA knock-down in NIH 3T3 cells (96-well transfection, Taqman RT-PCR); assay type: cell-based; conditions: 10 nM siNA, 24 hrs, normalized against GAPDH, average of 2 experiments
# Experimental: NIH 3T3 (mouse; ATCC cat# CRL-1658): Cells were cultured at 37° C. in the presence of 5% CO2 and grown in Dulbecco's modified Eagle's medium (DMEM) with 4 mM L-glutamine adjusted to contain 1.5 g/L sodium bicarbonate and 4.5 g/L glucose and supplemented with fetal bovine serum at a final concentration of 10%, 100 μg/mL of streptomycin, and 100 U/mL penicillin.
# Cells were plated in all wells of a tissue-culture treated, 96-well plate at a final count of 5000 cells/well in 100 μL of the appropriate culture media. The cells were cultured for 24 hours after plating at 37° C. in the presence of 5% CO2.
# After 24 hours, complexes containing siNA and RNAiMax were created as follows: A solution of RNAiMax diluted 33-fold in OPTI-MEM was prepared. In parallel, solutions of the siNAs for testing were prepared to a final concentration of 120 nM in OPTI-MEM. After incubation of RNAiMax/OPTI-MEM solution at room temperature for 5 min, an equal volume of the siNA solution and the RNAiMax solution were added together for each of the siNAs.
# This solution was incubated at room temperature for 20 minutes. After incubation, 20 uL of the solution was added to each of the relevant wells. The final concentration of siNA in each well was 10 nM and the final volume of RNAiMax in each well was 0.3 ul.
# The time of incubation with the RNAiMax-siNA complexes was 24 hours and there was no change in media between transfection and harvesting, unless otherwise indicated.
# RNA was extracted from a 96-well plate using the TaqMan® Gene Expression Cells-to-CT™ Kit (Cat# 4399002) with a modified protocol. Briefly, a 60 uL (1 plate) or 110 uL (2 plates) of the Lysis Solution with DNase I was dispensed into each well of the Lysis Buffer Plate (twin.tec full skirt plate). The lysis buffer and stop plates were stored at 4° C. until the cells were washed.
# The culture medium was aspirated and discarded from the wells of the culture plate. 50 uL of chilled DPBS was added to each well, then aspirated and discarded. The lysis was performed automatically using a BioMek FX instrument and method. After the Biomek method was completed, the lysis plate was incubated for 2 min at room temperature. The lysis plate can be stored for 2 hours at 4° C., or at −20° C. or −80° C. for two months.
# Each well of the reverse transcription plate required 10 uL of 2× reverse transcriptase Buffer, 1 uL of 20× reverse transcription enzyme and 2 uL of nuclease-free water. The reverse transcription master mix was prepared by mixing 2× reverse transcription buffer, 20× reverse transcription enzyme mix, and nuclease-free water. 13 uL of the reverse transcription master mix was dispensed into each well of the reverse transcription plate (semi-skirted). A separate reverse transcription plate was prepared for each cell plate. The plate was loaded onto a Biomek NX or Biomek FX Dual-96 and the Biomek method was run. The program is programmed to automatically added 7 uL of lysate from the cell lysis procedure described above into each well of the reverse transcription plate. The plate is sealed and spun on a centrifuge (1000 rpm for 30 seconds) to settle the contents to the bottom of the reverse transcription plate. The plate is placed in a thermocycler at 37° C. for 60 min, 95° C. for 5 min, and 4° C. until the plate is removed from the thermocycler. Upon removal, if not used immediately, the plate was frozen at −20° C.
# A series of probes and primers were used to detect the various mRNA transcripts of the genes of β-Actin (human cell line only), and of STAT1 and GAPDH in mouse and human cell lines. All Taqman probes and primers for the experiments here-in described were supplied as pre-validated sets by Applied Biosystems, Inc. (see Table 2).
# The assays were performed on an ABI 7900 instrument, according to the manufacturer's instructions. […]
Substance,EC50 (STAT1 mRNA),Maximum mRNA Knockdown (STAT1 mRNA),% KD Mouse (STAT1 mouse mRNA)
"25368-DC: STAT1 siNA duplex, human target site 782; modified strands SEQ ID NO: 73 and 74 (chain 1 GUAAAGUCAGAAAUGUGAATT; chain 2 UUCACAUUUCUGACUUUACUU; chain 1: DNA at AGT, 2'-fluoro at CU, [invAb] at 5' end, 3' end, backbone not given here; chain 2: sugars from the 5' end rrrmfmfffffmmffffmfmm, backbone not given here)",0.06 nM,93%,87%
"25372-DC: STAT1 siNA duplex, human target site 968; modified strands SEQ ID NO: 81 and 82 (chain 1 UUGACAAUAAGAGAAAGGATT; chain 2 UCCUUUCUCUUAUUGUCAAUU; chain 1: DNA at AGT, 2'-fluoro at CU, [invAb] at 5' end, 3' end, backbone not given here; chain 2: sugars from the 5' end rrrffffffffmffmffmmmm, backbone not given here)",0.5 nM,96%,81%
"25367-DC: STAT1 siNA duplex, human target site 966; modified strands SEQ ID NO: 71 and 72 (chain 1 GCUUGACAAUAAGAGAAAGTT; chain 2 CUUUCUCUUAUUGUCAAGCUU; chain 1: DNA at AGT, 2'-fluoro at CU, [invAb] at 5' end, 3' end, backbone not given here; chain 2: sugars from the 5' end rrrffffffmffmffmmmfmm, backbone not given here)",,,82%
"25369-DC: STAT1 siNA duplex, human target site 602; modified strands SEQ ID NO: 75 and 76 (chain 1 GGAAAAGCAAGCGUAAUCUTT; chain 2 AGAUUACGCUUGCUUUUCCUU; chain 1: DNA at AGT, 2'-fluoro at CU, [invAb] at 5' end, 3' end, backbone not given here; chain 2: sugars from the 5' end rrrffmfmfffmfffffffmm, backbone not given here)",,,66%
"25351-DC: STAT1 siNA duplex, human target site 2249; modified strands SEQ ID NO: 39 and 40 (chain 1 CCUACACGAAGAAAGAACUTT; chain 2 AGUUCUUUCUUCGUGUAGGUU; chain 1: DNA at AGT, 2'-fluoro at CU, [invAb] at 5' end, 3' end, backbone not given here; chain 2: sugars from the 5' end rrrfffffffffmfmfmmmmm, backbone not given here)",,,82%
